For data set [1] the following is noted: relative to hydrocortisone; cited from earlier work.
The conditions of data set [2]: relative to hydrocortisone; cited from earlier work. The source holds these as a separate data set.
The subject of data set [3] is hypothalamic-pituitary-adrenal axis suppression. Particulars: cited from earlier work.
For data set [4], the system named is patients at risk for sepsis / septic shock. Particulars: preventive administration; cited from earlier work.
The test system of data set [5] is adult patients with severe sepsis who were not in septic shock. The data set is described as follows: HYPRESS case-control analysis, hydrocortisone vs. placebo by bio-ADM </>70 pg/mL (PP population). Format: in vivo, human. Particulars: for patients who developed shock: PP population. On the procedure:
The HYPRESS study is a double-blind, randomized clinical trial conducted from Jan. 13, 2009, to Aug. 27, 2013, with a follow-up of 180 days until Feb. 23, 2014 (Keh et al. 2016. JAMA 316(17): 1775-1785). The trial was performed in 34 intermediate or intensive care units of university and community hospitals in Germany, and it included 380 adult patients with severe sepsis who were not in septic shock.
Patients were screened in intermediate care units or intensive care units (ICUs) of university and community hospitals for eligibility, and written informed consent was obtained from patients, patient-authorized representatives, or legal representatives. Patients were enrolled if they met all inclusion criteria: (1) provided informed consent; (2) had evidence of infection; (3) had evidence of a systemic response to infection, defined as at least 2 systemic inflammatory response syndrome criteria 12; and (4) had evidence of organ dysfunction present for not longer than 48 hours. The main exclusion criterion was septic shock. Other exclusion criteria were being younger than 18 years, having known hypersensitivity to hydrocortisone or mannitol (placebo), or having a history of glucocorticoid medication with indication for continuation of therapy or other indications for treatment with glucocorticoids. Patients were not excluded for using etomidate within 72 hours before enrolment, using a short course of glucocorticoids within 72 hours before enrolment, or using topical or inhaled glucocorticoids.
Septic shock was defined as sepsis-induced hypotension despite adequate volume status for longer than 4 hours (ie, mean arterial pressure <65 mm Hg, systolic arterial pressure <90 mm Hg, or the use of vasopressors to keep mean arterial pressure ≥65 mm Hg or systolic arterial pressure ≥90 mm Hg). […] Adequate volume status was defined as a central venous pressure of 8 mm Hg or greater (≥12 mm Hg in ventilated patients) and a central venous oxygen saturation greater than 70%. For fluid replacement, patients were to receive at least 500 to 1000 mL of crystalloids or 300 to 500 mL of colloids over 30 minutes. The use of hydroxyethyl starch preparations was discouraged owing to possible harmful effects on kidney function. Use of vasopressors was defined as therapy with dopamine at a dosage of at least 5 μg/kg/min or with any dose of epinephrine, norepinephrine, vasopressin, or other vasopressors.
The study medication (hydrocortisone and placebo) was produced and released by BAG Health Care GmbH. The medication was delivered in boxes, each containing 17 brown glass vials for 1 patient. Each vial contained 100 mg of lyophilized hydrocortisone hydrogen succinate or the same amount of lyophilized mannitol as placebo, which was indistinguishable from hydrocortisone. The medication was administered as an intravenous bolus of 50 mg, followed by a 24-hour continuous infusion of 200 mg on 5 days, 100 mg on days 6 and 7, 50 mg on days 8 and 9, and 25 mg on days 10 and 11.
For the present analysis, a total of n=110 cases and controls from the intention-to-treat data set of the SepNet study HYPRESS study (ClinicalTrials.gov number: NCT00670254) were selected, of which n=97 were treated according to protocol and selected for the analysis. Patients with and without septic shock during their ICU stay were selected at a 1:1 ratio. Control patients were matched according to demographics, organ dysfunction, concomitant medication and other outcomes.
The primary end point for the case-control study was the occurrence of septic shock within 28 days, or discharge from the ICU. The goal was to identify potential interaction between the levels of bio-ADM (</>70 pg/mL) and treatment arm (hydrocortisone vs. placebo).

The subject of data set [6] is patients with septic shock. Particulars: hydrocortisone alone; cited from earlier work.
Data set [7] in a line: Stability of human Adrenomedullin in human Citrate plasma at 24° C. The data set is classed as in vitro ADME. Particulars: for recovery: 10 ng ADM/ml, read-out: Average ADM recovery (N = 5); for Average loss of immune reactivity: average over time points. On the procedure: Human ADM was diluted in human Citrate plasma (n=5, final concentration 10 ng ADM/ml) and incubated at 24° C. At selected time points, aliquots were frozen at −20° C.

Read-outs that look alike come from different tables or passages of the source.

Turning to `CC(=O)OCC(=O)[C@@]1(O)CC[C@H]2[C@@H]3CCC4=CC(=O)CC[C@]4(C)[C@H]3C(=O)C[C@@]21C` [Cortisone acetate], in data set [1], the “Potency relat. to hydrocortisone, Anti-inflammatory” value is reported as 0.8. The “Potency relat. to hydrocortisone, Mineralcorticoid” value in data set [2] is recorded as 0.8. Besides, in data set [3], the “Half-life duration of action” value is 8 to 12 h.
With `C[C@]12CCC(=O)C=C1CC[C@H]1[C@@H]3CC[C@](O)(C(=O)CO)[C@@]3(C)C[C@H](O)[C@@]12F` [Fludrocortisone], in data set [3], the “Half-life duration of action” value was 24 to 36 h.
On to `C[C@]12CCC(=O)C=C1CC[C@@H]1[C@@H]2[C@@H](O)C[C@@]2(C)[C@H]1CC[C@]2(O)C(=O)CO` [Hydrocortisone], for which the “Potency relat. to hydrocortisone, Anti-inflammatory” value in data set [1] is on record as 1. Also, the “Potency relat. to hydrocortisone, Mineralcorticoid” value in data set [2] is listed as 1. For the same compound, the “Half-life duration of action” value in data set [3] is 8 to 12 h. Further, the “risk of a septic shock within 14 days” value in data set [4] is “doesn't reduces the risk”. Further, the “needed additional treatment with Benzodiazepine” value in data set [5] (patients with bio-AD<70 pg/mL) was 12.0%. Further, in data set [5] (patients with bio-ADM<70 pg/mL), the “median length of stay” value is on record as 22 days, the “needed a surgical intervention” value was 48.0%, the “needed additional treatment with Propofol” value is reported as 16.0% and the “needed additional treatment with opioids” value is 40.0%. Further, in data set [5] (patients with bio-ADM<70 pg/mL), the “survived the 90-day follow up” value was 76.0% and the “patients who developed shock” value was 40%. In data set [5] (patients with bio-ADM>70 pg/mL), the “median length of stay” value was determined as 25 days, the “needed a surgical intervention” value is on record as 27.3%, the “needed additional treatment with Benzodiazepine” value came out at 13.6% and the “needed additional treatment with Propofol” value is 4.5%. In addition, in data set [5] (patients with bio-ADM>70 pg/mL), the “needed additional treatment with opioids” value came to 31.8%, the “survived the 90-day follow up” value came to 72.7% and the “patients who developed shock” value amounted to 50%. For the same compound, the survival effect result in data set [6] is “no survival effect”.
With `C[C@H]1C[C@@H]2[C@H]([C@@H](O)C[C@@]3(C)[C@H]2CC[C@]3(O)C(=O)CO)[C@@]2(C)C=CC(=O)C=C12` [Methylprednisolone], the “Half-life duration of action” value in data set [3] is 12 to 36 h.
For the compound `C[C@]12C=CC(=O)C=C1CC[C@@H]1[C@@H]2[C@@H](O)C[C@@]2(C)[C@H]1CC[C@]2(O)C(=O)CO` [Prednisolone], the “Potency relat. to hydrocortisone, Anti-inflammatory” value in data set [1] is recorded as 4. In addition, the “Potency relat. to hydrocortisone, Mineralcorticoid” value in data set [2] is 0.8. Also, the “Half-life duration of action” value in data set [3] is 12 to 36 h.
Consider `C[C@]12C=CC(=O)C=C1CC[C@@H]1[C@@H]2C(=O)C[C@@]2(C)[C@H]1CC[C@]2(O)C(=O)CO` [Prednisone], for which the “Half-life duration of action” value in data set [3] is 12 to 36 h.
In the case of `CC[C@H](C)[C@H](NC(=O)[C@H](CCC(N)=O)NC(=O)[C@H](Cc1c[nH]cn1)NC(=O)[C@H](C)NC(=O)[C@H](CC(C)C)NC(=O)[C@H](CCCCN)NC(=O)[C@H](CCC(N)=O)NC(=O)[C@@H](NC(=O)[C@@H](NC(=O)[C@@H]1CSSC[C@H](NC(=O)CNC(=O)[C@H](Cc2ccccc2)NC(=O)[C@H](CO)NC(=O)[C@H](CCCNC(=N)N)NC(=O)[C@H](CC(C)C)NC(=O)CNC(=O)[C@H](CCC(N)=O)NC(=O)[C@H](Cc2ccccc2)NC(=O)[C@H](CC(N)=O)NC(=O)[C@H](CC(N)=O)NC(=O)[C@H](CCSC)NC(=O)[C@H](CO)NC(=O)[C@H](CCC(N)=O)NC(=O)[C@H](CCCNC(=N)N)NC(=O)[C@@H](N)Cc2ccc(O)cc2)C(=O)N[C@@H](CCCNC(=N)N)C(=O)N[C@@H](Cc2ccccc2)C(=O)NCC(=O)N[C@@H]([C@@H](C)O)C(=O)N1)[C@@H](C)O)C(C)C)C(=O)N[C@@H](Cc1ccc(O)cc1)C(=O)N[C@@H](CCC(N)=O)C(=O)N[C@@H](Cc1ccccc1)C(=O)N[C@H](C(=O)N[C@@H](CC(=O)O)C(=O)N[C@@H](CCCCN)C(=O)N[C@@H](CC(=O)O)C(=O)N[C@@H](CCCCN)C(=O)N[C@@H](CC(=O)O)C(=O)N[C@@H](CC(N)=O)C(=O)N[C@H](C(=O)N[C@@H](C)C(=O)N1CCC[C@H]1C(=O)N[C@@H](CCCNC(=N)N)C(=O)N[C@@H](CO)C(=O)N[C@@H](CCCCN)C(=O)N[C@H](C(=O)N[C@@H](CO)C(=O)N1CCC[C@H]1C(=O)N[C@@H](CCC(N)=O)C(=O)NCC(=O)N[C@@H](Cc1ccc(O)cc1)C(N)=O)[C@@H](C)CC)C(C)C)[C@@H](C)O` [hADM], the recovery in data set [7] (0 h) was determined as 100%; in data set [7] (2 h) it was 99.2%; in data set [7] (4 h), 96.4%; in data set [7] (8 h) it was 88.2%. Besides, the “Loss of immune reactivity %/h” value in data set [7] (2 h) worked out at 0.4 %/h; in data set [7] (4 h), 0.8 %/h; in data set [7] (8 h), 1.5 %/h. Moreover, the “Average loss of immune reactivity” value in data set [7] is recorded as “Average: 0.9%/h”; in data set [7] (listed as ADM) it was 0.9 %/h. For the same compound, the metabolised at 2 h, 10 ng/ml in data set [7] (human citrate plasma, 2 h, read-out: Relative loss of immune reactivity) worked out at 0.8%. In addition, in data set [7] (human citrate plasma, 4 h, read-out: Relative loss of immune reactivity), the metabolised at 4 h, 10 ng/ml was found to be 3.6%. Moreover, the metabolised at 8 h, 10 ng/ml in data set [7] (human citrate plasma, 8 h, read-out: Relative loss of immune reactivity) was 11.8%.
